Results reported in ChEMBL document CHEMBL1201862, “PubChem BioAssay data set” (2004).
Calls of active or inactive are those of the source.

What was measured:
[1] = inhibitors of HIV Env-driven cell fusion, dose response, cherry-pick (AID 652057); type: functional, cell-based
[2] = CEM21 lymphoblast cell cytotoxicity, dose response, cytotoxicity control for viral fusion inhibitor project, CellTiter-Glo luminescence, cherry-picked (AID 652042); type: functional, cell-based;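 note: potency for signal decrease meaning cytotoxicity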
[3] = inhibitors of clade B AD8 Env fusion, dose response, cell-based, cherry-pick (AID 652062); type: functional;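 note: luciferase signal from cell-cell fusion driven by HIV-1 clade B AD8 Env; potency is for inhibitors of fusion seen as a drop in luminescence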
[4] = ZM109 Env clade C HIV-1 fusion inhibitors, dose response, HeLa effector, CEM target cells, luciferase, cherry-pick (AID 652058); type: functional, cell-based
cells [5] = type: functional, cell-based
cells [6] = type: functional, cell-based; remark: listed apart in the source
[7] = target: T1, Trace amine-associated receptor 1 (Homo sapiens, UniProt Q96RJ0); assay: Counterscreen for agonists of the human trace amine associated receptor 1 (hTAAR1): Fluorescence-based cell-based high throughput dose response assay to identify hTAAR1 agonist that also desensitize TAAR1 receptor response.; type: functional
T1 sequence (Q96RJ0 whole entry): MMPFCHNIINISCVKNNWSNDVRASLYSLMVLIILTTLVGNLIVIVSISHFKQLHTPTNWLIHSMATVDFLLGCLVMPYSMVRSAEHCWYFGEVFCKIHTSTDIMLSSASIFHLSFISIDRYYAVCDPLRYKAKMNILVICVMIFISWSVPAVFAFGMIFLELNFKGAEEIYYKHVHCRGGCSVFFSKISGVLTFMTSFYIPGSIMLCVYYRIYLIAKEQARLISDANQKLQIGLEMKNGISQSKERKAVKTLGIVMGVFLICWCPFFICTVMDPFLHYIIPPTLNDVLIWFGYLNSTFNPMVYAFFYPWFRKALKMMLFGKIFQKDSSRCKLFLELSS

[8] = target: T1, Trace amine-associated receptor 1; assay: Fluorescence-based cell-based high throughput dose response assay to identify agonists of the human trace amine associated receptor 1 (TAAR1).; type: functional
[9] = Shn3 3'UTR reporter inhibitors, dose response, cell-based, Clone20 osteoblasts, firefly luciferase, cherry-picked (AID 624132); type: functional;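 note: firefly luciferase luminescence from reporter carrying the Shn3 3'UTR in osteoblasts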
[10] = inhibitors of control Renilla luciferase reporter, dose response, counter-screen for Shn3 3'UTR targeting project, Clone20-Shn3RL cells, dual-Glo, cherry-pick, set 2 (AID 720724); type: functional, cell-based; conditions: Dual-Go Shn3RL
[11] = reduction of Shn3 3'UTR firefly luciferase signal, dose response, Schnurri-3 inhibitor project, cell-based, Clone20 osteoblasts, cherry-pick, set 2 (AID 720490); type: functional;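 note: actives lower the luminescence signal as inhibitors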
[12] = HepG2 cell cytotoxicity, dose response, cytotoxicity control for Shn3 inhibitor project, CellTiter-Glo, cherry-picked (AID 624134); type: functional, cell-based
[13] = control 3'UTR Renilla luciferase suppression, dose response, counter-screen for Shn3 inhibitor project, cell-based, Clone20-Shn3RL, cherry-picked (AID 624133); type: functional
[14] = HEK293T cytotoxicity, dose response, cytotoxicity control for miR-122 modulator project, cell-based, activator set, cherry-pick (AID 720690); type: functional;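 note: HEK293T human cells scored for general mammalian cytotoxicity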
[15] = miR-122 activators in hepatoma reporter cells, dose response, cell-based, Huh7 psiCHECK-miR122, Renilla luciferase, cherry-picked (AID 651956); type: functional;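 note: huh7 hepatoma cells stably carrying a psiCHECK-2 miR-122 sensor plasmid; renilla luciferase signal reporting endogenous miR-122 activity after 48 h compound exposure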
[16] = T. cruzi growth inhibition in host cells, dose response, cell-based, plate reader, dry powder, set 2 (AID 652275); type: functional
[17] = HEK293T cytotoxicity, dose response, cytotoxicity control for miR-122 modulator project, cell-based, inhibitor set, cherry-pick, set 2 (AID 720697); type: functional
[18] = T. cruzi intracellular amastigote growth inhibition, dose response, imaging, CA-I/72 strain, bovine embryo skeletal muscle, dry powder (AID 651885); type: functional, cell-based
[19] = Counterscreen for antagonists of the human trace amine associated receptor 1 (hTAAR1): Fluorescence-based cell-based high throughput dose response assay to identify nonselective Ga16 antagonists.; type: functional
[20] = Counterscreen for […] of the human trace amine associated receptor 1 (TAAR1): Fluorescence-based cell-based high throughput dose response assay to identify nonselective Ga16 agonists.; type: functional
[21] = target: T1, Trace amine-associated receptor 1; assay: Fluorescence-based cell-based high throughput dose response assay to identify antagonists of the human trace amine associated receptor 1 (TAAR1).; type: functional
[22] = target: T1, Trace amine-associated receptor 1; assay: Counterscreen for antagonists of the human trace amine associated receptor 1 (hTAAR1): Fluorescence-based cell-based high throughput dose response assay to identify TAAR1 Agonists.; type: functional
cells [23] = type: functional, cell-based; remark: listed apart in the source
[24] = HepG2 cell cytotoxicity, dose response, cytotoxicity control, ATP luminescence, cherry-pick, activator set 2 (AID 1053143); type: functional, cell-based
cells [25] = type: functional, cell-based; remark: listed apart in the source
[26] = target: Tyrosyl-DNA phosphodiesterase 2 (Homo sapiens, UniProt O95551); assay: human TDP2 enzyme inhibitors, dose response, biochemical, epi absorbance, IC50 (AID 743297)
Tyrosyl-DNA phosphodiesterase 2, sequence (O95551 whole entry): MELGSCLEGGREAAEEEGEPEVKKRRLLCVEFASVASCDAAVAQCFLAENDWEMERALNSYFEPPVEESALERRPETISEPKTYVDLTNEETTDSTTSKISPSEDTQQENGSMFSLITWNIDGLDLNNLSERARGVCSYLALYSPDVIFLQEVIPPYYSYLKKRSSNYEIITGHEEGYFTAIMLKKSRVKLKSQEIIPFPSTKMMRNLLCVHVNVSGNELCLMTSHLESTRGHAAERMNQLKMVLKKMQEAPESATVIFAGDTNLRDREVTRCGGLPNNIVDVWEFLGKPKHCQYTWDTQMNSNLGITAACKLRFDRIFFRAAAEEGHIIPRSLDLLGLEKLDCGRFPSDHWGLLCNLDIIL

Protein RecA = target: T2, Protein RecA (Mycobacterium tuberculosis, UniProt P9WHJ3); assay: Fluorescence Cell-Free Homogeneous Dose Retest to Identify Inhibitors of RecA-Intein Splicing Activity. [Related pubchem assays (depositor defined):AID2097, AID2223, AID489010, AID492950]; type: functional
T2 sequence (P9WHJ3 whole entry): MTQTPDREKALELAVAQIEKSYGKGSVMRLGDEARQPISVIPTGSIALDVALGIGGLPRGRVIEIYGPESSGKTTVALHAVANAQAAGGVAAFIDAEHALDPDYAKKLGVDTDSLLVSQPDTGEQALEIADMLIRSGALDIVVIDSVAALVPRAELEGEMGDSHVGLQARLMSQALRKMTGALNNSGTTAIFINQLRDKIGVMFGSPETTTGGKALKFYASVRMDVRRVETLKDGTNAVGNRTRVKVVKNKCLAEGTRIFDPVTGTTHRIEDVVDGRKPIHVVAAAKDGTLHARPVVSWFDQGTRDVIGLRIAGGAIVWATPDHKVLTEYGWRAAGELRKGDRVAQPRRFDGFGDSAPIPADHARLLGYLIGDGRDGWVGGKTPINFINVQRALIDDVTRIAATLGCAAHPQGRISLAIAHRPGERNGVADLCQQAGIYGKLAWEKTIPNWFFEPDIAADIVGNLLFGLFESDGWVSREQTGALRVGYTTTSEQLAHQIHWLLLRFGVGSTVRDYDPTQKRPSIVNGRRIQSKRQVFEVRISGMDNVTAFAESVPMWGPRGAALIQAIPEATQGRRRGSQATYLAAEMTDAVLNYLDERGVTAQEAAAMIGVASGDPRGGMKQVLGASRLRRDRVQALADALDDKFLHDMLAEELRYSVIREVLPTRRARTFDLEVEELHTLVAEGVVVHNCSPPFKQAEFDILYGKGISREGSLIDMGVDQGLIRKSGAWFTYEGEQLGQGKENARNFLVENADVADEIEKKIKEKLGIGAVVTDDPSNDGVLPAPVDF

[27] = target: T3, Apoptotic protease-activating factor 1 (Homo sapiens, UniProt O14727); type: functional
T3 sequence (O14727 whole entry): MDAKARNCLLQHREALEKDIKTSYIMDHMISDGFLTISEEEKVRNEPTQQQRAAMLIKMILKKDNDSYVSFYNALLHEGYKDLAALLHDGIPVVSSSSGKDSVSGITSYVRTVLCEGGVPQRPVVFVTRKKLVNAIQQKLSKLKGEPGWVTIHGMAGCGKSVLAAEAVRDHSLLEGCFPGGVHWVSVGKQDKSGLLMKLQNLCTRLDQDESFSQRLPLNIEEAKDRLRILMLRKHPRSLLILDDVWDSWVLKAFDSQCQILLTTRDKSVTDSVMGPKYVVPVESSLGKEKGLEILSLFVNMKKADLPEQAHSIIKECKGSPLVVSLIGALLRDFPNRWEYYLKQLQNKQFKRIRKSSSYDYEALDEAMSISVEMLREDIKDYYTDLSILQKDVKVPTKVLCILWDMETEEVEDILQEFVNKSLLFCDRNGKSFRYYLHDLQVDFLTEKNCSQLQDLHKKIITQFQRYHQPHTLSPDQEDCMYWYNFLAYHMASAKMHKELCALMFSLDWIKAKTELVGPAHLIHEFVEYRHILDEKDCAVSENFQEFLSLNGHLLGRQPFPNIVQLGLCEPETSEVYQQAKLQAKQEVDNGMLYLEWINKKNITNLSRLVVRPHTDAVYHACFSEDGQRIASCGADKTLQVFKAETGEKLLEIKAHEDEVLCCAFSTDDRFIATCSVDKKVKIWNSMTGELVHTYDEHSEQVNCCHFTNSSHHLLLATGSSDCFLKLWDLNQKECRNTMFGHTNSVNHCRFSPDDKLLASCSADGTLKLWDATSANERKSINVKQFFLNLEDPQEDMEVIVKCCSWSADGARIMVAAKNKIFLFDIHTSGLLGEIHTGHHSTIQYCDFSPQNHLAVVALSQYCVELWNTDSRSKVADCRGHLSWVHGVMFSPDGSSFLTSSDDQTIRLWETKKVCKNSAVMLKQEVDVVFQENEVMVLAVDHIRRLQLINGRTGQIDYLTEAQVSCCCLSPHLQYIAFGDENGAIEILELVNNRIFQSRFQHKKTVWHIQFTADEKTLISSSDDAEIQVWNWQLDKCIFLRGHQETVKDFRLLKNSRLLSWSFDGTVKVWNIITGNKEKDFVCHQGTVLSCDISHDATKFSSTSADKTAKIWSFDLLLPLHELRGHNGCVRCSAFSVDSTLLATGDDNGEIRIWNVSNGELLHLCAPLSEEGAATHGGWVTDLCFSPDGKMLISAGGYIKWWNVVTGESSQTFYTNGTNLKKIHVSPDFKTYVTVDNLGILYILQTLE

[28] = target: T4, Replicative DNA helicase DnaB (Mycobacterium tuberculosis, UniProt P9WMR3); assay: DnaB intein splicing inhibitors, dose response, biochemical, cell-free fluorescence (AID 449749); type: functional
T4 sequence (P9WMR3 whole entry): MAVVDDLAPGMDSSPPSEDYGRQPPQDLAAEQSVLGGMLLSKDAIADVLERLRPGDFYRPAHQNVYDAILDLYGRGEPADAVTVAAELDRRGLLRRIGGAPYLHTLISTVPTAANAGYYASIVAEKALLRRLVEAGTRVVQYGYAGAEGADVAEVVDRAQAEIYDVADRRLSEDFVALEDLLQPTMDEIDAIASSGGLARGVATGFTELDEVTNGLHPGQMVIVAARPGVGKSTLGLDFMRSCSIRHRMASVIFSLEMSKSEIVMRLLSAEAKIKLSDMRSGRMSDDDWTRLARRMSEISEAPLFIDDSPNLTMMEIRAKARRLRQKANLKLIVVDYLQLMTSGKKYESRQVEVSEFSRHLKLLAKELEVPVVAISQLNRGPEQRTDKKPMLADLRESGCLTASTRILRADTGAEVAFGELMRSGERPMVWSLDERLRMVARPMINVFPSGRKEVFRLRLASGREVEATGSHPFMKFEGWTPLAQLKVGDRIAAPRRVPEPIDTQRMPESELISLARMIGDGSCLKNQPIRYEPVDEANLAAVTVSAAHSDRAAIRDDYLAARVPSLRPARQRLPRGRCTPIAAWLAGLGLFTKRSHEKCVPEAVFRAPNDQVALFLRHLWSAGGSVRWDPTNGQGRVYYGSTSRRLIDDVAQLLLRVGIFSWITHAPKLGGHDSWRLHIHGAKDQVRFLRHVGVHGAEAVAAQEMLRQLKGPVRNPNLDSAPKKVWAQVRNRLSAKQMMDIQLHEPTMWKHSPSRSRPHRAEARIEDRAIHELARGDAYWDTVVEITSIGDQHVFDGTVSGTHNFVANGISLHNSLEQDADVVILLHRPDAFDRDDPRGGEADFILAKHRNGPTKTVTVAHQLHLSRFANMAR

[29] = target: Mitochondrial peptide methionine sulfoxide reductase (Bos taurus, UniProt P54149); type: functional;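 note: absorbance read-out, biochemical high-throughput dose-response screen for MsrA inhibitors, confirmatory; recombinant bovine MsrA coupled to E. coli TrxB with NADPH and selenocystamine; potency is for inhibitors of MsrA activity on DMSO substrate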
Mitochondrial peptide methionine sulfoxide reductase, sequence (P54149 whole entry): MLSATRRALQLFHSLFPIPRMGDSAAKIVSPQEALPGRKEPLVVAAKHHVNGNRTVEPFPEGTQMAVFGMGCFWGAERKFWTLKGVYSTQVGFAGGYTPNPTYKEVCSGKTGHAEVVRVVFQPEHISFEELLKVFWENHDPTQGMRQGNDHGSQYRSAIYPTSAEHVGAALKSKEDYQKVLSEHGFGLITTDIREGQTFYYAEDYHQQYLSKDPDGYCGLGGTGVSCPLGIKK

Cc1nc2ccc(NC(=O)c3ccc(Cl)c(S(=O)(=O)N(C)c4ccccc4)c3)cc2s1
AC50 [1]: 35.5 µM (active)
AC50 [2]: 58.6 µM (active)
AC50 [3]: 3.19 µM (active)
AC50 [4]: 3.88 µM (active)

CCC(C)(C)n1nnnc1C(c1ccc(O)cc1)N1CCc2ccccc2C1 (stereo not given)
IC50 (cells [5]): > 29.9 µM (inactive)
EC50 (cells [6]): > 29.9 µM (inactive)
IC50 [7]: 1.26 µM (active)
EC50 [8]: 0.333 µM (active)

Cc1nc(NC(C)c2ccccc2)c2oc3ccccc3c2n1 (stereo not given)
AC50 [9]: 3.06 µM (active)
AC50 [10]: 46.5 µM (active)
AC50 [11]: 3.44 µM (active)
AC50 [12]: 35.1 µM (active)
AC50 [13]: 24 µM (active)

C[C@@H]1CN([C@H](C)CO)S(=O)(=O)c2ccc(C#Cc3ccncc3)cc2O[C@@H]1CN(C)C(=O)Nc1ccc2c(c1)OCO2
AC50 [14]: 29.8 µM (active)
AC50 [15]: 4.77 µM (active)

CC(c1ccc(Cl)cc1)N1CC2(C1)CN(C(C)C)C(=O)c1cccc(NC(=O)c3ccncc3)c1O2 (stereo not given)
AC50 [16]: 0.556 µM (active)

CNC(=O)C[C@H]1CC[C@H]2[C@@H](COc3ccc(NC(=O)C4CC4)cc3C(=O)N2C)O1
AC50 [17]: 2.59 µM (active)

CC(C)N1C[C@H](C)[C@@H](CN(C)C(=O)OC(C)(C)C)Oc2c(C(=O)O)cccc2C1=O
IC50 [18]: > 20 µM (inactive)

CCNC(=S)N/N=C/c1cc(C)n(-c2ccc(Cl)cc2)c1C
IC50 [19]: > 29.9 µM (inactive)
EC50 [20]: > 29.9 µM (inactive)
IC50 [21]: 1.13 µM (active)
EC50 [22]: 13.6 µM (inactive)

Nc1ccccc1NC(=O)c1ccccc1
EC50 (cells [23]): 13.8 µM (active)
AC50 [24]: 17.5 µM (active)
EC50 (cells [25]): > 350 µM (not active)

O=C(O)c1ccc(NC2=C(n3nnc4ccccc43)C(=O)c3ccccc3C2=O)cc1
IC50 [26]: 40.1 µM (inactive)
EC50 (Protein RecA): 3 µM (active)
IC50 [27]: 7.8 µM (active)
AC50 [28]: 4.36 µM (active)
IC50 [29]: 11.6 µM (inactive)
